Experimental data: patent US12404279B2, “Deubiquitinase inhibitors and methods of use thereof” (Molecure S.A., priority 2021, dated 2025)
Where a name gives a salt, the structure may show the parent alone. Read-outs that look alike come from different tables or passages of the source.

Target: full-length USP7 (Homo sapiens (Human), UniProt Q93009)
Assay: Enzymatic assay to determine IC50 of USP7 inhibitors (Ubiquitin-Rhodamine 110 cleavage)
Assay type: biochemical
Details: for IC50: 0.5 nM USP7, 0.5 μM Ubiquitin-Rhodamine 110, 45 min at 37° C.; for inhibition at 1 µM: read-out: percent value of inhibition of USP7 activity
How it was run: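 Full-length USP7 (0.5 nM) in 50 mM HEPES pH 7.5, 150 mM NaCl, 1 mM DTT, 1 mg/ml BSA, 0.05% Tween20 was preincubated 15 min with DTT at room temperature before compound addition.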

[1] = at 1 μM of the test compound, given where IC50 not determined yet

full-length USP7, sequence (Q93009 whole entry): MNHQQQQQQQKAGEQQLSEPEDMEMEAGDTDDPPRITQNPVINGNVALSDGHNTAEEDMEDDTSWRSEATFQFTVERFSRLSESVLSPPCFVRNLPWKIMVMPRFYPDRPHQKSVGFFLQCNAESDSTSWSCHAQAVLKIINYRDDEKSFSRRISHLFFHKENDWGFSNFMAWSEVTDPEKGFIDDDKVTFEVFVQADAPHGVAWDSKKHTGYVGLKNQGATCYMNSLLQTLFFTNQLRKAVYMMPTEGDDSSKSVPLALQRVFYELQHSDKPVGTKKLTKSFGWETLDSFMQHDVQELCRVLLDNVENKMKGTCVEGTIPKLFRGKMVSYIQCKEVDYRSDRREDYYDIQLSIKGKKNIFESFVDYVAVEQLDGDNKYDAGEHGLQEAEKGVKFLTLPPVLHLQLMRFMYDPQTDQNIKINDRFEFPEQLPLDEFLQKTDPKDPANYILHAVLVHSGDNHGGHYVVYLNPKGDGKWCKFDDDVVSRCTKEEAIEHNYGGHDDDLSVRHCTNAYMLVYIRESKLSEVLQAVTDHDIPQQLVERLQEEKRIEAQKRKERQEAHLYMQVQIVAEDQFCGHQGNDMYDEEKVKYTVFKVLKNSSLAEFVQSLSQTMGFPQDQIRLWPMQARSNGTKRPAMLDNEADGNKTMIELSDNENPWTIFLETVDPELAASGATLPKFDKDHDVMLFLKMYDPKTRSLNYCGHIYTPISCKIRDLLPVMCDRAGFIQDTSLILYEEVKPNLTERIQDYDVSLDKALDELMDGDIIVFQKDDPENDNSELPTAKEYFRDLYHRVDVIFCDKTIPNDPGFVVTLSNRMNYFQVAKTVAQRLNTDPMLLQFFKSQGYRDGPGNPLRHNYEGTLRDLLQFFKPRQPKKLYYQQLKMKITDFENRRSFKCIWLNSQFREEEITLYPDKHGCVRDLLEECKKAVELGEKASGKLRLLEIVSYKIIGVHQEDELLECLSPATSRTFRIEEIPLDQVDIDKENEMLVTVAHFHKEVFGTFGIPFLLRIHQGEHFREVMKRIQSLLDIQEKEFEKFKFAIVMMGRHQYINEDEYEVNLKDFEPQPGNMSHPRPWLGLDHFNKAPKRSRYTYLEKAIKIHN

| SMILES | IC50 [nM] | inhibition at 1 µM [1] [%] | further results |
| --- | --- | --- | --- |
| Cc1nc(C(F)(F)F)cc(-c2ccnc3cc(CN4C(=O)C5C(C4=O)C5(C)C)sc23)c1CC1CNCCO1 (racemic) [Example 91, 6,6-dimethyl-3-((7-(2-methyl-3-(morpholin-2-ylmethyl)-6-(trifluoromethyl)pyridin-4-yl)thieno[3,2-b]pyridin-2-yl)methyl)-3-azabicyclo[3.1.0]hexane-2,4-dione 2,2,2-trifluoroacetate] | < 500 |  |  |
| Cc1cc(C)c(NC(=O)C2CNC2)c(-c2ccnc3cc(CN4C(=O)C5C(C4=O)C5(C)C)sc23)n1 (centres unmarked) [Example 133, N-(2-(2-((6,6-dimethyl-2,4-dioxo-3-azabicyclo[3.1.0]hexan-3-yl)methyl)thieno[3,2-b]pyridin-7-yl)-4,6-dimethylpyridin-3-yl)azetidine-3-carboxamide 2,2,2-trifluoroacetate] | 1000 to 10000 |  |  |
| Cc1cc(C#N)nc(-c2ccnc3cc(CN4C(=O)C5C(C4=O)C5(C)C)sc23)c1C(=O)N1CC(N(C)C)C1 (centres unmarked) [Example 43, 6-(2-((6,6-dimethyl-2,4-dioxo-3-azabicyclo[3.1.0]hexan-3-yl)methyl)thieno[3,2-b]pyridin-7-yl)-5-(3-(dimethylamino)azetidine-1-carbonyl)-4-methylpicolinonitrile] |  | 50 to 70 |  |
| Cc1nc(Cl)cc(-c2ccnc3cc(CN4C(=O)C5C(C4=O)C5(C)C)sc23)c1NC1CCNC1 (racemic) [Example 125, 3-((7-(6-chloro-2-methyl-3-(pyrrolidin-3-ylamino)pyridin-4-yl)thieno[3,2-b]pyridin-2-yl)methyl)-6,6-dimethyl-3-azabicyclo[3.1.0]hexane-2,4-dione 2,2,2-trifluoroacetate] | < 500 |  |  |
| Cc1cc(C(F)(F)F)nc(-c2ccnc3cc(CN4C(=O)C5C(C4=O)C5(C)C)sc23)c1C(=O)N1CCC(CN)C1 (racemic) [Example 139, 3-((7-(3-(3-(aminomethyl)pyrrolidine-1-carbonyl)-4-methyl-6-(trifluoromethyl)pyridin-2-yl)thieno[3,2-b]pyridin-2-yl)methyl)-6,6-dimethyl-3-azabicyclo[3.1.0]hexane-2,4-dione trihydrochloride] | < 500 |  |  |
| Cc1cc(C(F)(F)F)nc(-c2ccnc3cc(CN4C(=O)C5C(C4=O)C5(C)C)sc23)c1C(=O)N1CC[C@H](F)C1 (stereo partly drawn) [Example 114, 3-((7-(3-((S)-3-fluoropyrrolidine-1-carbonyl)-4-methyl-6-(trifluoromethyl)pyridin-2-yl)thieno[3,2-b]pyridin-2-yl)methyl)-6,6-dimethyl-3-azabicyclo[3.1.0]hexane-2,4-dione hydrochloride] | < 500 |  |  |
| CC1(C)C2C(=O)N(Cc3cc4nccc(-c5cc(F)cnc5O[C@@H]5CCNC5)c4s3)C(=O)C21 (stereo partly drawn) [Example 158, 3-((7-(5-fluoro-2-(((R)-pyrrolidin-3-yl)oxy)pyridin-3-yl)thieno[3,2-b]pyridin-2-yl)methyl)-6,6-dimethyl-3-azabicyclo[3.1.0]hexane-2,4-dione hydrochloride] |  | < 20 |  |
| Cc1cc(Cl)nc(-c2ccnc3cc(CN4C(=O)C5C(C4=O)C5(C)C)sc23)c1NC1CCCNC1 (racemic) [Example 129, 3-((7-(6-chloro-4-methyl-3-(piperidin-3-ylamino)pyridin-2-yl)thieno[3,2-b]pyridin-2-yl)methyl)-6,6-dimethyl-3-azabicyclo[3.1.0]hexane-2,4-dione tetrahydrochloride] | < 500 |  |  |
| CC1(C)C2C(=O)N(Cc3cc4nccc(-c5cc(C(F)(F)F)cnc5CC5NCCNC5=O)c4s3)C(=O)C21 (centres unmarked) [Example 166, 6,6-dimethyl-3-((7-(2-((3-oxopiperazin-2-yl)methyl)-5-(trifluoromethyl)pyridin-3-yl)thieno[3,2-b]pyridin-2-yl)methyl)-3-azabicyclo[3.1.0]hexane-2,4-dione hydrochloride] |  | < 20 |  |
| Cc1ccnc(CC2CNCCO2)c1-c1ccnc2cc(CN3C(=O)C4C(C3=O)C4(C)C)sc12 (centres unmarked) [Example 93, 6,6-dimethyl-3-((7-(4-methyl-2-(morpholin-2-ylmethyl)pyridin-3-yl)thieno[3,2-b]pyridin-2-yl)methyl)-3-azabicyclo[3.1.0]hexane-2,4-dione 2,2,2-trifluoroacetate] |  |  | inhibition at 1 µM: < 20% |
| Cc1cc(C(F)(F)F)nc(-c2ccnc3cc(CN4C(=O)C5C(C4=O)C5(C)C)sc23)c1C(=O)N1CCNC[C@@H]1C (stereo partly drawn) [Example 78, 6,6-dimethyl-3-((7-(4-methyl-3-((S)-2-methylpiperazine-1-carbonyl)-6-(trifluoromethyl)pyridin-2-yl)thieno[3,2-b]pyridin-2-yl)methyl)-3-azabicyclo[3.1.0]hexane-2,4-dione dihydrochloride] | < 500 |  |  |
| CC1(C)C2C(=O)N(Cc3cc4nccc(-c5cc(Cl)cnc5O[C@H]5CCCNC5)c4s3)C(=O)C21 (stereo partly drawn) [Example 161, 3-((7-(5-chloro-2-(((S)-piperidin-3-yl)oxy)pyridin-3-yl)thieno[3,2-b]pyridin-2-yl)methyl)-6,6-dimethyl-3-azabicyclo[3.1.0]hexane-2,4-dione dihydrochloride] |  | 50 to 70 |  |
| Cc1nc(C#N)cc(-c2ccnc3cc(CN4C(=O)C5C(C4=O)C5(C)C)sc23)c1NC(=O)C1CCN1 (centres unmarked) [Example 27, N-(6-cyano-4-(2-((6,6-dimethyl-2,4-dioxo-3-azabicyclo[3.1.0]hexan-3-yl)methyl)thieno[3,2-b]pyridin-7-yl)-2-methylpyridin-3-yl)azetidine-2-carboxamide 2,2,2-trifluoroacetate] |  |  | inhibition at 1 µM: < 20% |
| Cc1cc(C(F)(F)F)nc(-c2ccnc3cc(CN4C(=O)C5C(C4=O)C5(C)C)sc23)c1C(=O)N1CC[C@@H]2CNC[C@@H]21 (stereo partly drawn) [Example 116, 6,6-dimethyl-3-((7-(4-methyl-3-((3aR,6aR)-octahydropyrrolo[3,4-b]pyrrole-1-carbonyl)-6-(trifluoromethyl)pyridin-2-yl)thieno[3,2-b]pyridin-2-yl)methyl)-3-azabicyclo[3.1.0]hexane-2,4-dione dihydrochloride] | < 500 |  |  |
| Cc1cc(C(F)(F)F)nc(-c2ccnc3cc(CN4C(=O)C5C(C4=O)C5(C)C)sc23)c1C(=O)N1[C@H](C)CNC[C@H]1C (stereo partly drawn) [Example 142, 3-((7-(3-((2R,6R)-2,6-dimethylpiperazine-1-carbonyl)-4-methyl-6-(trifluoromethyl)pyridin-2-yl)thieno[3,2-b]pyridin-2-yl)methyl)-6,6-dimethyl-3-azabicyclo[3.1.0]hexane-2,4-dione 2,2,2-trifluoroacetate] | 1000 to 10000 |  |  |
| Cc1nc(C(F)(F)F)cc(-c2ccnc3cc(CN4C(=O)C5C(C4=O)C5(C)C)sc23)c1NC(=O)C1CCN(C(=O)C(F)(F)F)C1 (racemic) [Example 65, N-(4-(2-((6,6-dimethyl-2,4-dioxo-3-azabicyclo[3.1.0]hexan-3-yl)methyl)thieno[3,2-b]pyridin-7-yl)-2-methyl-6-(trifluoromethyl)pyridin-3-yl)-1-(2,2,2-trifluoroacetyl)pyrrolidine-3-carboxamide 2,2,2-trifluoroacetate] | > 10000 |  |  |
| Cc1cc(C(F)(F)F)nc(-c2ccnc3cc(CN4C(=O)C5C(C4=O)C5(C)C)sc23)c1CN1CCN(C)CC1=O (centres unmarked) [Example 41, 6,6-dimethyl-3-((7-(4-methyl-3-((4-methyl-2-oxopiperazin-1-yl)methyl)-6-(trifluoromethyl)pyridin-2-yl)thieno[3,2-b]pyridin-2-yl)methyl)-3-azabicyclo[3.1.0]hexane-2,4-dione dihydrochloride] |  | < 20 |  |
| Cc1cc(Cl)cc(-c2ccnc3cc(CC4NCCNC4=O)sc23)c1O[C@H]1CCCNC1 (stereo partly drawn) [Example 178, 3-((7-(5-chloro-3-methyl-2-(((S)-piperidin-3-yl)oxy)phenyl)thieno[3,2-b]pyridin-2-yl)methyl)piperazin-2-one hydrochloride] | < 500 |  |  |
| Cc1ccnc(-c2ccnc3cc(CN4C(=O)C5C(C4=O)C5(C)C)sc23)c1C(=O)N1CC(F)(F)C1 (centres unmarked) [Example 50, 3-((7-(3-(3,3-difluoroazetidine-1-carbonyl)-4-methylpyridin-2-yl)thieno[3,2-b]pyridin-2-yl)methyl)-6,6-dimethyl-3-azabicyclo[3.1.0]hexane-2,4-dione hydrochloride] |  | < 20 |  |
| Cc1cc(C(F)(F)F)nc(-c2ccnc3cc(CN4C(=O)C5C(C4=O)C5(C)C)sc23)c1C(=O)N1CC[C@H](NC(C)C)C1 (stereo partly drawn) [Example 74, 3-((7-(3-((S)-3-(isopropylamino)pyrrolidine-1-carbonyl)-4-methyl-6-(trifluoromethyl)pyridin-2-yl)thieno[3,2-b]pyridin-2-yl)methyl)-6,6-dimethyl-3-azabicyclo[3.1.0]hexane-2,4-dione dihydrochloride] | < 500 |  |  |
| Cc1nc(C#N)cc(-c2ccnc3cc(CN4C(=O)C5C(C4=O)C5(C)C)sc23)c1C(=O)N1CC[C@H](O)C1 (stereo partly drawn) [Example 11, 4-(2-((6,6-dimethyl-2,4-dioxo-3-azabicyclo[3.1.0]hexan-3-yl)methyl)thieno[3,2-b]pyridin-7-yl)-5-((S)-3-hydroxypyrrolidine-1-carbonyl)-6-methylpicolinonitrile 2,2,2-trifluoroacetate] | < 500 |  |  |
| Cc1nc(C#N)cc(-c2ccnc3cc(CN4C(=O)C5C(C4=O)C5(C)C)sc23)c1C(=O)N1CCC(F)(F)CC1 (centres unmarked) [Example 13, 5-(4,4-difluoropiperidine-1-carbonyl)-4-(2-((6,6-dimethyl-2,4-dioxo-3-azabicyclo[3.1.0]hexan-3-yl)methyl)thieno[3,2-b]pyridin-7-yl)-6-methylpicolinonitrile 2,2,2-trifluoroacetate] |  | 20 to 49 |  |
| Cc1cc(C#N)nc(-c2ccnc3cc(CN4C(=O)C5C(C4=O)C5(C)C)sc23)c1OC1CCCNC1 (centres unmarked) [Example 1, 6-(2-((6,6-dimethyl-2,4-dioxo-3-azabicyclo[3.1.0]hexan-3-yl)methyl)thieno[3,2-b]pyridin-7-yl)-4-methyl-5-(piperidin-3-yloxy)picolinonitrile 2,2,2-trifluoroacetate] | < 500 |  |  |
